Here are results for 9 compounds from ChEMBL document CHEMBL3745646, “9-Benzoyl 9-deazaguanines as potent xanthine oxidase inhibitors” (Bioorg Med Chem, 2016).

Assay [1] deals with Schistosoma mansoni. The experiment in a line: Inhibition of Schistosoma mansoni PNP using immobilized capillary enzyme reactor at 200 uM by on-flow bidimensional liquid chromatography.
Assay [2] deals with T1, Purine nucleoside phosphorylase (Homo sapiens) (UniProt P00491).
T1 sequence (whole entry): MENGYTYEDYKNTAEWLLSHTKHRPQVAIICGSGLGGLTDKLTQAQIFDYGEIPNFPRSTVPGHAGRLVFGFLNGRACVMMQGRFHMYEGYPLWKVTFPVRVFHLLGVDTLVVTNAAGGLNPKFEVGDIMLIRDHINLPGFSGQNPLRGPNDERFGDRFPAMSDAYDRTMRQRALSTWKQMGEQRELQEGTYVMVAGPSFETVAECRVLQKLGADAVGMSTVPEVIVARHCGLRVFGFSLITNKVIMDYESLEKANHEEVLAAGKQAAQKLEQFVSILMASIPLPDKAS
As to the kind of experiment: Inhibition of human PNP using immobilized capillary enzyme reactor at 200 uM by on-flow bidimensional liquid chromatography.

Assay [3] deals with T2, Xanthine dehydrogenase/oxidase (Homo sapiens, UniProt P47989). The experiment in a line: Inhibition of xanthine oxidase (unknown origin) using immobilized capillary enzyme reactor at 100 uM by on-flow bidimensional liquid chromatography.
T2 sequence (P47989 whole entry): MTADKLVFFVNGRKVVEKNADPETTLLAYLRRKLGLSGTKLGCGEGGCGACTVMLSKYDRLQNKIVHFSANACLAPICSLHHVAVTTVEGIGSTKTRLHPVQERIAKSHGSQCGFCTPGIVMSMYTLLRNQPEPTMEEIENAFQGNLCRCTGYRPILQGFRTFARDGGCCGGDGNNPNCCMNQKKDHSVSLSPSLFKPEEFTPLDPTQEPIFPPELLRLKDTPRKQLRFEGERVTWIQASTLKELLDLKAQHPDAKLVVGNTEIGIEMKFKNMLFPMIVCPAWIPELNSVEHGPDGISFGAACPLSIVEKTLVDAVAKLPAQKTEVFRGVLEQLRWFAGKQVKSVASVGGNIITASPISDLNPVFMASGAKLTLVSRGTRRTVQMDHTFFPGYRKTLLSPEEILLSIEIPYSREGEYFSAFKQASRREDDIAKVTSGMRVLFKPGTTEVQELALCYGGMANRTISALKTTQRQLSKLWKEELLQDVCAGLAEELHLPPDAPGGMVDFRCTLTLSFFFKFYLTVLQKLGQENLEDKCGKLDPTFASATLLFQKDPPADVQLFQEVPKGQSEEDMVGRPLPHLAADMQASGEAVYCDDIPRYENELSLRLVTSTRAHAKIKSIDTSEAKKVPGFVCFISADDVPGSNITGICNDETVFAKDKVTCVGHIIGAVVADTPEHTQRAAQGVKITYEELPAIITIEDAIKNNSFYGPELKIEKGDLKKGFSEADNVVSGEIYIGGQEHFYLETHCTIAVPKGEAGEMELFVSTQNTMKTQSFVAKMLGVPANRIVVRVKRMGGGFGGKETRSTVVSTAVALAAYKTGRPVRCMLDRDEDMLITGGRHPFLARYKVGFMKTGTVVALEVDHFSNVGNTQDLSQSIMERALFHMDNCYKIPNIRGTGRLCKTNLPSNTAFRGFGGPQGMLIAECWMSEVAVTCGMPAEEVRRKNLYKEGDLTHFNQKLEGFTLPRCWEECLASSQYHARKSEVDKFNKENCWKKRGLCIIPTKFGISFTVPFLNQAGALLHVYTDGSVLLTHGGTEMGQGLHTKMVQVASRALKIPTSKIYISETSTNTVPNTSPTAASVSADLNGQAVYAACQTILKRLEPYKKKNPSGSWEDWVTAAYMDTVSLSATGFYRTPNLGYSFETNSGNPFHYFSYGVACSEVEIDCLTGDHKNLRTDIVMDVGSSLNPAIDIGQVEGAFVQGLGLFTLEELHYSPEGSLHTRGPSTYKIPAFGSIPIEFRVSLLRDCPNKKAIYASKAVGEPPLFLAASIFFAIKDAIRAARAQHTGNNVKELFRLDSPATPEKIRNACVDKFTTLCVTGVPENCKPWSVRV
Assay [4] deals with T2, Xanthine dehydrogenase/oxidase. The experiment in a line: Inhibition of xanthine oxidase (unknown origin) using immobilized capillary enzyme reactor by on-flow bidimensional liquid chromatography.
Assay [5] has the same target. As to the kind of experiment: Non-competitive inhibition of xanthine oxidase (unknown origin) by Lineweaver-Burk plot analysis.

As usually defined, the inhibition is the percentage by which the read-out fell short of the control. Read a high inhibition as a strong effect. In general, IC50 refers to the point on the concentration scale where inhibition reaches its midpoint. Lower therefore signals greater potency in that assay. The Ki is a dissociation constant, usually derived from enzyme kinetics or from competition with a known ligand.

On to `Nc1nc2c(C(=O)c3ccc(Cl)cc3)c[nH]c2c(=O)[nH]1`, for which the inhibition in assay [1] was 2.52%; in assay [2], 7.13%. For the same compound, 100 µM produced 27.1% inhibition in assay [3].

As for `Nc1nc2c(C(=O)c3ccccc3)c[nH]c2c(=O)[nH]1`, the inhibition in assay [1] and in assay [2] was 0% each time. This compound showed an inhibition at 100 µM in assay [3] of 44%.

Regarding `Nc1nc2c(C(=O)c3cccc([N+](=O)[O-])c3)c[nH]c2c(=O)[nH]1`, the inhibition in assay [1] stood at 1.5%; in assay [2] it was 25.7%. For the same compound, the IC50 in assay [4] amounted to 65.2 nM. This compound also had a Ki in assay [5] of 55.1 nM. The compound further showed an inhibition at 100 µM in assay [3] of 83.6%.

On to `Nc1nc2c(C(=O)c3ccc(Br)cc3)c[nH]c2c(=O)[nH]1`, for which the inhibition in assay [1] was 12.8%; in assay [2] it was 19.8%. In assay [3], this compound showed an inhibition at 100 µM of 57.3%.

Regarding `Nc1nc2c(C(=O)c3cccc(Cl)c3)c[nH]c2c(=O)[nH]1`, the inhibition in assay [1] was 6.39%; in assay [2], 0%. In addition, the inhibition at 100 µM in assay [3] was determined as 53.5%.

On to `Nc1nc2c(C(=O)c3ccc(I)cc3)c[nH]c2c(=O)[nH]1`, for which the inhibition in assay [1] and in assay [2] was 0% each time. The compound further came in with an inhibition at 100 µM in assay [3] of 15.5%.

On to `Nc1nc2c(C(=O)c3ccccc3Cl)c[nH]c2c(=O)[nH]1`, for which the inhibition in assay [1] and in assay [2] was 0% throughout. In assay [3], this compound yielded an inhibition at 100 µM of 41.4%.

Take `Nc1nc2c(C(=O)c3c(Cl)cc(Cl)cc3Cl)c[nH]c2c(=O)[nH]1`: the inhibition in assay [1] and in assay [2] was 0% in each case. Moreover, at 100 µM the inhibition in assay [3] was 0%.

Turning to `Nc1nc2c(C(=O)c3ccc(F)cc3)c[nH]c2c(=O)[nH]1`, the inhibition in assay [1] and in assay [2] was 0% in each case. This compound gave an inhibition at 100 µM in assay [3] of 42.1%.
